Source: publication PMC6208908, “Field template-based design and biological evaluation of new sphingosine kinase 1 inhibitors” (Breast Cancer Research and Treatment, 2018)

Tests used:
recombinant SK2 = target: T1, recombinant SK2 (Homo sapiens, UniProt Q9NRA0); experiment: SK2 activity assay with recombinant SK2 (high salt), Lineweaver-Burk; type: biochemical; conditions: Lineweaver-Burk plot, high salt (Figure S8B)
T1 sequence (Q9NRA0 1-654): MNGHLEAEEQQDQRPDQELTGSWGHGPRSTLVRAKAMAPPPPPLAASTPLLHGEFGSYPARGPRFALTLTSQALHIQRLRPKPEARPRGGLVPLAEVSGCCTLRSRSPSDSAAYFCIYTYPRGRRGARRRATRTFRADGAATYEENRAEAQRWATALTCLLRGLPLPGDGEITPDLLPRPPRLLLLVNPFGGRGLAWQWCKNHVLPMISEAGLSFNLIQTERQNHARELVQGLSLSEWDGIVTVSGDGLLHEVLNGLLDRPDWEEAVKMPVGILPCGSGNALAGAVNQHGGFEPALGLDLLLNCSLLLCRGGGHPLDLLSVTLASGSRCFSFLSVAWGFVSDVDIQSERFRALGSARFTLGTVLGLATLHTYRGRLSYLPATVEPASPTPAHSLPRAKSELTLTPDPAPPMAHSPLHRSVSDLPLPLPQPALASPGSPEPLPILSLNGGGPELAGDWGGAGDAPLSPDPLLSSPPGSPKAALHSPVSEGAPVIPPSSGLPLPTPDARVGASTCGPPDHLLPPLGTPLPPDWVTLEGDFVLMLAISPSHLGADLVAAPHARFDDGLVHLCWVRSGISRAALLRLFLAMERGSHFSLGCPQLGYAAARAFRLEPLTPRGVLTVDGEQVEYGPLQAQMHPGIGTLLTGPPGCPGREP
Procedure: SK assay was performed using radiolabeling as previously described, in conditions favouring SK1 or SK2 activity as required.
SK1 activity was determined in the presence of triton X-100 and SK2 activity was measured in the presence of high salt concentrations, conditions that favour SK1 and SK2, respectively. […] Km for SK1 was 6.97 ± 1.20 µM, Vmax 98 ± 4 µM/min/mg protein and Ki for SK-F 0.46 ± 0.1 µM. […] Some SK inhibitors such as SKI-II were previously shown to induce proteasomal degradation of SK1 [48, 49].

SK1 protein = SK1 protein level (Figure S9); type: cell-based
MDA-MB-231 cells = experiment: MTT cell viability / proliferation assay; type: cell-based, human; conditions: for IC50: Homo sapiens
Procedure: Cellular viability was measured using the 3-(4,5-dimethylthiazol-2-yl)-2,5-diphenyltetrazolium bromide (MTT; 5 mg/ml) colorimetric assay as already described.
Fig. 4 Effect of compounds SK-A to SK-F on breast cancer cell viability. MDA-MB-231 cells were incubated with 1, 2, 5 and 10 µM of compounds SK-A to SK-F for up to 120 h. Cell proliferation was measured using MTT assay. Columns, means of three independent experiments normalised to control; bars, SEM. (*p < 0.05; **p < 0.01; ^§p < 0.001). IC50 levels for SK-F for 72, 96 and 120 h were 7, 4.5 and 3 µM, respectively

[1] = tested on: 4T1 breast cancer allografts; experiment: 4T1 breast cancer allograft, tumour volume; type: in vivo, BALB/c nude mice; conditions: 5 mg/kg each drug i.p. twice a week for 2 weeks; control 468 mm^3
Procedure: Breast cancer allografts were established in 6–8-week-old BALB/c nude mice by injection of 10^6 4T1 cells into their mammary pad. Two weeks after implantation, mice were randomised into treatment groups (n = 6/group) and treated twice a week for 2 weeks with intraperitoneal injections of dimethyl sulfoxide (DMSO), 5 mg/kg DTX, 5 mg/kg SK-F, 5 mg/kg DTX + 5 mg/kg SK-F. One day after the last treatment, all mice were euthanized and blood was collected. Tumour long and short radii were measured using calipers and tumour volume (v) was calculated using the formula v = 4/3 πab^2 (a – long radius, b – short radius). Mice and individual organs were weighed and primary tumours were then processed for analysis of SK1 activity as described above. Full blood count and liver function test analysis was done in the Hammersmith hospital biochemical lab. […]
Fig. 5 Effect of compound SK-F on breast tumour growth and SK1 activity. […] Two weeks after implantation, mice were randomised into treatment groups (n = 6/group) and treated twice a week for 2 weeks with intraperitoneal injections of: DMSO, 5 mg/kg DTX, 5 mg/kg SK-F, 5 mg/kg DTX + 5 mg/kg SK-F. a Tumour volume in the different treatment groups of 4T1 breast cancer implanted in mouse mammary fat pad. b SK1 activity in tumours was measured using radiolabelling. […]

[2] = Liver function tests in treated mice; type: in vivo, BALB/c nude mice; conditions: 5 mg/kg each drug i.p. twice a week for 2 weeks, compared with DTX
Procedure: Breast cancer allografts were established in 6–8-week-old BALB/c nude mice by injection of 10^6 4T1 cells into their mammary pad. Two weeks after implantation, mice were randomised into treatment groups (n = 6/group) and treated twice a week for 2 weeks with intraperitoneal injections of dimethyl sulfoxide (DMSO), 5 mg/kg DTX, 5 mg/kg SK-F, 5 mg/kg DTX + 5 mg/kg SK-F. One day after the last treatment, all mice were euthanized and blood was collected. Tumour long and short radii were measured using calipers and tumour volume (v) was calculated using the formula v = 4/3 πab^2 (a – long radius, b – short radius). Mice and individual organs were weighed and primary tumours were then processed for analysis of SK1 activity as described above. Full blood count and liver function test analysis was done in the Hammersmith hospital biochemical lab.
Fig. 6 Liver function tests of mice treated with SK-F and docetaxel (DTX). Breast cancer allografts were established in BALB/c nude mice by injection of 4T1 cells into their mammary pad. Two weeks after implantation, mice were randomised into treatment groups (n = 6/group) and treated twice a week for two weeks with intraperitoneal injections of: DMSO, 5 mg/kg DTX, 5 mg/kg SK-F, 5 mg/kg DTX + 5 mg/kg SK-F. a Alanine transaminases (ALT). b Bilirubin. c Aspartate transaminase (AST). d Albumin. e Alkaline phosphatase (ALP). f Total protein. Columns, mean of n = 6 animals normalised to control; bars, SEM. (*p < 0.05; **p < 0.01)

SK1 in 4T1 cells = target: T2, SK1 in 4T1 cells (Mus musculus, UniProt Q8CI15); experiment: SK1 activity in 4T1 cells in vitro (Figure S10); type: cell-based, murine
T2 construct: endogenous in cells; host or cells: 4T1
T2 sequence (Q8CI15 whole entry): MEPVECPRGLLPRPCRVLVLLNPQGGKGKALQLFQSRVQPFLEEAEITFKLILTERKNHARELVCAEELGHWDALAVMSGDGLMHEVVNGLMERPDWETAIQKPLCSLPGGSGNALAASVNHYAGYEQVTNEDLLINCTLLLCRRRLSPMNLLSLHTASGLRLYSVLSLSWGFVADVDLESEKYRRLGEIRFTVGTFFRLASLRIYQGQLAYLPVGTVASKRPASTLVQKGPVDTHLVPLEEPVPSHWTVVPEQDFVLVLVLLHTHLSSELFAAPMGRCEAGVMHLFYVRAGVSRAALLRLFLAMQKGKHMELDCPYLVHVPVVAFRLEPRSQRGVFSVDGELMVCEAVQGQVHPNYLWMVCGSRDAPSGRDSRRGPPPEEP

CCCCCCCCc1ccc(NC(=O)c2ccccc2)cc1 [SK-F]
inhibition of SK2 (recombinant SK2): no inhibition
effect on SK1 protein (SK1 protein): did not induce any change
effect on MDA-MB-231 cancer cell proliferation (MDA-MB-231 cells; 1, 2, 5 and 10 µM, up to 120 h): highest effect
IC50 (MDA-MB-231 cells; MDA-MB-231, 72 h): 7 µM
IC50 (MDA-MB-231 cells; MDA-MB-231, 96 h): 4.5 µM
IC50 (MDA-MB-231 cells; MDA-MB-231, 120 h): 3 µM
tumour volume at the end of the study [1]: 371 mm^3
liver function test toxicity profile [2]: milder toxicity profile
SK1 activity in 4T1 cells (SK1 in 4T1 cells): significant inhibition
